Results from PubChem BioAssay (NCI).
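These data come from cells grown in 96-well plates and exposed to compound for 48 hours at five concentrations. TGI marks complete inhibition of growth.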

Tests used:
Experiment in all cases: growth of human tumour cells (NCI), 48 h
NCI-H460 lung = system: NCI-H460 lung
K-562 leukemia = system: K-562 leukemia
LXFL 529 NSCLC = system: LXFL 529 NSCLC
SK-OV-3 ovarian = system: SK-OV-3 ovarian
KM12 colon = system: KM12 colon
HOP-92 NSCLC = system: HOP-92 NSCLC
U251 CNS = system: U251 CNS
M19-MEL melanoma = system: M19-MEL melanoma
SW-620 colon = system: SW-620 colon
DMS 114 small cell lung = system: DMS 114 small cell lung
OVCAR-3 ovarian = system: OVCAR-3 ovarian
UACC-62 melanoma = system: UACC-62 melanoma
NCI-H23 lung = system: NCI-H23 lung
COLO 205 colon = system: COLO 205 colon
SNB-19 CNS = system: SNB-19 CNS
XF 498 CNS = system: XF 498 CNS
OVCAR-4 ovarian = system: OVCAR-4 ovarian
LOX IMVI melanoma = system: LOX IMVI melanoma
ACHN renal = system: ACHN renal
HT29 colon = system: HT29 colon
RXF 393 renal = system: RXF 393 renal
DLD-1 colon = system: DLD-1 colon
A549 NSCLC = system: A549 NSCLC
M14 melanoma = system: M14 melanoma
SK-MEL-28 melanoma = system: SK-MEL-28 melanoma
HOP-18 NSCLC = system: HOP-18 NSCLC
HCT-15 colon = system: HCT-15 colon
UACC-257 melanoma = system: UACC-257 melanoma
IGROV1 ovarian = system: IGROV1 ovarian
KM20L2 colon = system: KM20L2 colon
SF-295 CNS = system: SF-295 CNS
TK-10 renal = system: TK-10 renal
NCI-H522 lung = system: NCI-H522 lung
SK-MEL-5 melanoma = system: SK-MEL-5 melanoma
HL-60(TB) leukemia = system: HL-60(TB) leukemia
SF-268 CNS = system: SF-268 CNS
786-0 renal = system: 786-0 renal
MALME-3M melanoma = system: MALME-3M melanoma
DMS 273 small cell lung = system: DMS 273 small cell lung
SK-MEL-2 melanoma = system: SK-MEL-2 melanoma
SF-539 CNS = system: SF-539 CNS
MOLT-4 leukemia = system: MOLT-4 leukemia
CCRF-CEM leukemia = system: CCRF-CEM leukemia
NCI-H226 lung = system: NCI-H226 lung
SN12C renal = system: SN12C renal
SNB-75 CNS = system: SNB-75 CNS
UO-31 renal = system: UO-31 renal
SNB-78 CNS = system: SNB-78 CNS
RPMI-8226 leukemia = system: RPMI-8226 leukemia
HCT-116 colon = system: HCT-116 colon
HCC-2998 colon = system: HCC-2998 colon
EKVX NSCLC = system: EKVX NSCLC
OVCAR-5 ovarian = system: OVCAR-5 ovarian
OVCAR-8 ovarian = system: OVCAR-8 ovarian
A498 renal = system: A498 renal
CAKI-1 renal = system: CAKI-1 renal
HOP-62 NSCLC = system: HOP-62 NSCLC

Measured: TGI

Cc1cn(C2CC(n3cncn3)C(C(C)O)O2)c(=O)[nH]c1=O (stereo not given)
not listed: A498 renal | CAKI-1 renal | HOP-62 NSCLC
> 100 µM: all other assays above

Cc1cccc(-c2nnc3s/c(=C\c4ccc5c(c4)OCO5)c(=O)n23)c1
not listed: HT29 colon
> 100 µM: all other assays above
